In patent publication US20090029367A1 (AstraZeneca AB, priority 2005, published 2009):

Key:
PON1 = PON1 (Homo sapiens, UniProt P27169); details: cited from earlier work
[1] = test system: alanine aminotransferase (ALAT); assay: ALAT elevation during longer-term treatment with ximelagatran (clinical trials); assay type: in vivo, human
From the text: Phase III clinical trials have been performed using fixed doses of melagatran and ximelagatran for the prevention of VTE in hip or knee replacement surgery. In addition, clinical trials have been performed using ximelagatran for the treatment and long-term secondary prevention of VTE, and for the prevention of stroke in patients with non-valvular atrial fibrillation. Ximelagatran has also been tested for secondary thrombosis prophylaxis post-myocardial infarction/acute coronary syndrome (ACS).
Alanine aminotransferrase (ALAT) is an enzyme mostly expressed in the liver (EC 2.6.1.2). It is also called serum glutamate pyruvate transaminase (SGPT) or alanine transaminase (ALT). This enzyme is release into the plasma by liver cell death, which is a normal event. However, when liver cell death increases, ALAT levels rise above the normal range. The spill-over of this enzyme into blood is routinely measured as a marker of abnormal liver-cell damage. For example, alcoholic or viral hepatitis will increase ALAT levels, as will severe congestive heart failure. ALAT is also markedly raised in hepatitis and other acute liver damage. An elevated ALAT in the presence of normal levels of plasma alkaline phosphatase helps distinguish liver disease caused by liver-cell damage from diseases caused by problems in biliary ducts. Elevations of ALAT are normally measured in multiples of the upper limit of normal (ULN), with a reference range of 15-45 U/L in most laboratories. In 1987, in a study of 19,877 healthy Air Force recruits, only 99 (0.5%) had confirmed ALAT elevations (as reviewed in Green & Flamm (2002) Gastroenterology 123:1367-1384).
The increase in ALAT values with ximelagatran usually occurred within the first 6 months of treatment and were mainly asymptomatic. […] Subject to the future regulatory approval of ximelagatran, regular liver function testing (LFT) using an appropriate algorithm may be required if ximelagatran is used for treatment periods exceeding a month. […]

PON1, sequence (P27169 whole entry): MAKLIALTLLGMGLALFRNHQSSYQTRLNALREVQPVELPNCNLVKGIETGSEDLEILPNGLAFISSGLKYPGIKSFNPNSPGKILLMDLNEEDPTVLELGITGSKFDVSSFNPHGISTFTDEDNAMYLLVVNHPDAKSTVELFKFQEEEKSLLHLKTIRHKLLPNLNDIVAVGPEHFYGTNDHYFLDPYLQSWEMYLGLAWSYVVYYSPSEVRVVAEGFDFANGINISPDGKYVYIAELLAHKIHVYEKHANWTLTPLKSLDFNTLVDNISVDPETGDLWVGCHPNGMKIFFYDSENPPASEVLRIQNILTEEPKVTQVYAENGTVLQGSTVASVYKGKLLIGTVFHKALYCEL

SMILES | hydrolysis by PON1 (PON1) | patients exhibiting levels of alanine aminotransferase (ALAT) 3-fold or more above the upper limit of normal (≧3×ULN) ([1]; longer-term treatment (>35 days), 1.2% in the comparator groups) | reversibility of ALAT increases ([1]; regardless of whether treatment was continued or discontinued) | time of occurrence of the increase in ALAT values ([1]; usually, of treatment, mainly asymptomatic)
CC[C@H](C)C(=O)O[C@H]1C[C@@H](C)C=C2C=C[C@H](C)[C@H](CC[C@@H]3C[C@@H](O)CC(=O)O3)[C@H]21 [lovastatin] | hydrolyzed by PON1 | – | – | –
CC[C@H](C)C(=O)O[C@H]1CCC=C2C=C[C@H](C)[C@H](CC[C@@H]3C[C@@H](O)CC(=O)O3)[C@H]21 [mevastatin] | hydrolyzed by PON1 | – | – | –
CC(=O)S[C@@H]1CC2=CC(=O)CC[C@]2(C)[C@H]2CC[C@@]3(C)[C@@H](CC[C@@]34CCC(=O)O4)[C@H]12 [spironolactone] | hydrolyzed by PON1 | – | – | –
CCOC(=O)CN[C@@H](C(=O)N1CC[C@H]1C(=O)NCc1ccc(/C(N)=N\O)cc1)C1CCCCC1 [ximelagatran, EtOOC—CH2—(R)Cgl-Aze-Pab-OH] | – | 7.9% | reversible in most patients | ≤ 6 months
